Source: the NIST ThermoML archive (doi:10.1021/acs.jced.9b00507)

Assay: xn = mol fraction of the nth substance listed
Details: 100 kPa, Liquid; for viscosity: Concentric cylinders viscometry; for mass density: Vibrating tube method

CCCCCCn1cc[n+](C)c1.O=[N+]([O-])[O-] [1-hexyl-3-methylimidazolium nitrate] + CCCCCCCO
Details	mass density [kg/m3]	viscosity [mPa·s]
293.15 K, x1 = 0.0812	857.5	12.74
293.15 K, x1 = 0.1608	889.6	22.91
293.15 K, x1 = 0.2395	919	36.98
293.15 K, x1 = 0.3493	956.7	67.76
293.15 K, x1 = 0.4392	985	100.46
293.15 K, x1 = 0.5749	1023.9	177.42
293.15 K, x1 = 0.6491	1043.4	234.42
293.15 K, x1 = 0.7398	1065.6	338.84
293.15 K, x1 = 0.8496	1090.2	508.16
293.15 K, x1 = 0.9381	1108.4	677.64
293.15 K, x1 = 1	1120.3	804.17
298.15 K, x1 = 0.0812	853.9	10.09
298.15 K, x1 = 0.1608	885.9	16.67
298.15 K, x1 = 0.2395	915.3	25.12
298.15 K, x1 = 0.3493	953.1	41.88
298.15 K, x1 = 0.4392	981.5	61.38
298.15 K, x1 = 0.5749	1020.5	109.9
298.15 K, x1 = 0.6491	1040	150.66
298.15 K, x1 = 0.7398	1062.2	219.28
298.15 K, x1 = 0.8496	1087.1	334.2
298.15 K, x1 = 0.9381	1105.4	460.97
298.15 K, x1 = 1	1117.5	545.25
303.15 K, x1 = 0.0812	850.3	7.94
303.15 K, x1 = 0.1608	882.2	12.19
303.15 K, x1 = 0.2395	911.5	17.82
303.15 K, x1 = 0.3493	949.3	28.31
303.15 K, x1 = 0.4392	977.7	40.09
303.15 K, x1 = 0.5749	1016.8	69.18
303.15 K, x1 = 0.6491	1036.3	94.19
303.15 K, x1 = 0.7398	1058.6	136.14
303.15 K, x1 = 0.8496	1083.5	213.3
303.15 K, x1 = 0.9381	1102.1	303.7
303.15 K, x1 = 1	1114.3	369.14
308.15 K, x1 = 0.0812	846.5	6.64
308.15 K, x1 = 0.1608	878.3	9.57
308.15 K, x1 = 0.2395	907.7	13.27
308.15 K, x1 = 0.3493	945.5	19.95
308.15 K, x1 = 0.4392	973.9	27.99
308.15 K, x1 = 0.5749	1013	46.34
308.15 K, x1 = 0.6491	1032.6	61.8
308.15 K, x1 = 0.7398	1054.9	91.83
308.15 K, x1 = 0.8496	1080	147.57
308.15 K, x1 = 0.9381	1098.7	206.54
308.15 K, x1 = 1	1111.1	257.59
313.15 K, x1 = 0.0812	842.8	5.43
313.15 K, x1 = 0.1608	874.6	7.36
313.15 K, x1 = 0.2395	903.9	9.99
313.15 K, x1 = 0.3493	941.7	14.27
313.15 K, x1 = 0.4392	970.1	19.02
313.15 K, x1 = 0.5749	1009.3	31.62
313.15 K, x1 = 0.6491	1028.9	42.17
313.15 K, x1 = 0.7398	1051.3	62.32
313.15 K, x1 = 0.8496	1076.5	101.4
313.15 K, x1 = 0.9381	1095.3	142.89
313.15 K, x1 = 1	1107.8	185.67
318.15 K, x1 = 0.0812	839.1	4.59
318.15 K, x1 = 0.1608	870.8	6.17
318.15 K, x1 = 0.2395	900.2	7.85
318.15 K, x1 = 0.3493	937.9	10.99
318.15 K, x1 = 0.4392	966.4	14.45
318.15 K, x1 = 0.5749	1005.6	22.7
318.15 K, x1 = 0.6491	1025.4	30.06
318.15 K, x1 = 0.7398	1047.9	43.55
318.15 K, x1 = 0.8496	1073.1	71.58
318.15 K, x1 = 0.9381	1092.1	106.41
318.15 K, x1 = 1	1104.7	140.18
323.15 K, x1 = 0.0812	835.3	3.84
323.15 K, x1 = 0.1608	867	5.01
323.15 K, x1 = 0.2395	896.4	6.43
323.15 K, x1 = 0.3493	934.2	8.89
323.15 K, x1 = 0.4392	962.6	11.59
323.15 K, x1 = 0.5749	1001.9	17.99
323.15 K, x1 = 0.6491	1021.8	23.44
323.15 K, x1 = 0.7398	1044.4	34.2
323.15 K, x1 = 0.8496	1069.8	54.87
323.15 K, x1 = 0.9381	1088.9	82.79
323.15 K, x1 = 1	1101.6	110.94
